Experimental data: patent US4785005A, “6-(6-alkylpyridone)-carbostyril compounds and their cardiotonic uses” (Rorer Pharmaceutical Corporation, priority 1986, dated 1988)

Tests used:
[1] = system: anesthetized dog (myocardial contractile force, heart rate, arterial pressure, aortic flow); experiment: Ganglionic-beta blocked anesthetized dog procedure; type: in vivo; conditions: for ED50: Canis lupus familiaris, iv, read-out: inotropic ED50
Protocol: Adult mongrel dogs of either sex weighing 10 to 16 kg are fasted overnight, anesthetized with pentobarbital sodium 35 mg/kg, i.v. intubated, respired with room air using a Harvard respirator, and instrumented surgically to monitor myocardial contractile force, heart rate, arterial pressure, aortic flow and EKG limb lead II. The aforesaid measurements are recorded continously on a strip chart recorder.
Myocardial contractile force is monitored by a a Walton-Brodie strain gauge sutured to the left ventricular myocardium parallel to the left anterior descending coronary artery. Arterial pressure is measured using a fluid-filled catheter attached to a pressure transducer introduced via the right femoral artery and positioned in the thoracic aorta. Mean arterial pressure is determined by electronically clamping the pulsatile pressure signal. Aortic flow is monitored using a precalibrated, noncannulating electromagnetic flow probe positioned around the thoracic aorta. Heart rate is monitored using a cardiotachometer triggered by the QRS complex of the limb lead II EKG. The right femoral vein is cannulated for intravenous infusion of drugs. Body temperature is maintained at 37±1° C.
Following a 30 min postsurgical stabilization period, control values are recorded. Myocardial depression is induced by ganglionic and beta receptor blockade. Initially, the responsiveness of the autonomic nervous system is assessed by performing a 30 sec bilateral carotid occlusion (BCO). Ten minutes later, a saline solution of isoproterenol 0.3 mcg/kg i.v. is administered to assess beta receptor integrity. Ten minutes after that, a saline solution of mecamylamine 2 mg/kg i.v. is infused, followed by a saline solution of propranolol 1 mg/kg i.v. plus 0.3 mg/kg/hr. […] Ten minutes later, the test compound or vehicle is administered intravenously in ascending doses at 30 min intervals at […] in a total volume of 3.5 ml. On completion of the experiment, both BCO and isoproterenol challenges are repeated to verify ganglionic and beta blockade.
Solutions of the most preferred compound of the present invention, 6-[3'-cyano-6'-methyl-2'-oxo(1H)pyridin-5'-yl]-3,4-dihydrocarbostyril, and milrinone, 3-cyano-6-methyl-5-(4-pyridyl)-pyridin-2-one, were administered intravenously in accordance with the procedure described above. The solutions were prepared by dissolution in PEG 200 followed by serial saline dilution to yield test doses. Test solutions of 6-[3'-cyano-6'-methyl-2'-oxo(1H)pyridin-5'-yl]-3,4-dihydrocarbostyril were prepared at doses of 3, 10 and 30 mcg (expressed as base) per kg, and solutions of milrinone were prepared at test doses of 30, 100 and 300 mcg/kg.

[2] = system: Peak III cAMP phosphodiesterase; experiment: Inhibition of Peak III cAMP phosphodiesterase activity; type: biochemical, dog; conditions: fold more potent than milrinone
From the text: The following in vitro method is another means for measuring the inotropic potency of the present compounds. This method is a modification of the enzyme inhibition method reported by Thompson, W. J. and Appleman, M. M., "Characterization of Cyclic Nucleotide Phosphodiesterase of Rat Tissue," J. Biological Chemistry, Vol. 246, pp. 3145-3150 (1971); and Thompson, W. J., Brooker, G. and Appleman, M. M., "Assay of Cyclic Nucleotide Phosphodiesterase with Radioactive Substrates," Methods in Enzymology, Vol. 38, pp. 205-212 (1974); and is believed to correlate to in vivo intropic activity in humans.
The test compounds are included in media comprising a radioactively labeled substrate (^3 H-cyclic nucleotide) such as adenosine 3':5'-monophosphate (cyclic AMP) and guanosine-3':5'-monophosphate(cyclic GMP), and a non-rate-limiting amount of 5'-nucleotidease isolated from a dog heart. The inhibition of the enzyme hydrolysis of the 5'-nucleotide product of the cNUC-PDEase to the corresponding nucleoside is measured by separating the charged, unhydrolyzed substrate from the uncharged hydrolysis product. Separation may be acheived either chromatographically from the uncharged nucleoside product of the assay with ion-exchange resin or preferentially quenched with the ion-exchange resin so that it is not quantitated with the liquid scintillation counter.

[3] = 30 mcg/kg i.v., ganglionic-beta blocked anesthetized dog
[4] = ganglionic-beta blocked anesthetized dog
[5] = 100 mcg/kg i.v., ganglionic-beta blocked anesthetized dog

SMILES | increase in contractile force (maximum) [1, 3] [%] | increase in heart rate [1, 3] [%] | ED50 [1, 4] [mg/kg] | arterial blood pressure ([1]; i.v., at the doses tested (3, 10 and 30 mcg/kg)) | increase in aortic blood flow (maximum) ([1]; i.v., doses of 3, 10 and 30 mcg/kg tested) [%] | potency in Peak III phosphodiesterase inhibition relative to milrinone [2] | increase in contractile force [1, 5] [%] | increase in heart rate [1, 5] [%] | maximum decrease of mean arterial pressure ([1]; i.v., dose-related, sustained, doses of 30, 100 and 300 mcg/kg tested) [%] | increase in aortic blood flow (in words) ([1]; i.v., doses of 30, 100 and 300 mcg/kg tested)
Cc1[nH]c(=O)c(C#N)cc1-c1ccc2c(c1)CCC(=O)N2 [6-[3'-Cyano-6'-methyl-2'-oxo(1H)pyridin-5'-yl]-3,4-dihydrocarbostyril] | 97 | 17 | 0.016 | not altered | 51 | about twelve | – | – | – | –
Cc1[nH]c(=O)c(C#N)cc1-c1ccncc1 [milrinone, 3-cyano-6-methyl-5-(4-pyridyl)-pyridin-2-one, reference compound] | – | – | 0.05 | – | – | – | 111 | 19 | 32 | only transiently at low dose
